The source of these data is article PMC11086599, “Cyanobacterial α-carboxysome carbonic anhydrase is allosterically regulated by the Rubisco substrate RuBP” (Science Advances, 2024).

What is called EC50 is the concentration needed to bring the measured effect to its halfway point. Higher therefore signals a need for much substance. In general, stoichiometry N refers to a count of units in the complex or per binding partner.

In one data set the target is T1, HnCsoSCA (Halothiobacillus neapolitanus, UniProt O85042).
T1 construct: gene csoS3
The note with it: labelled compound; 2.7 mM NaH13C18O3, 50 mM EPPS-NaOH, 20 mM MgCl2, pH 7.8, DTNB; no RuBP needed.

In data set [1] the target is T2, CyCsoSCA (Cyanobium sp. PCC 7001, UniProt Z9Q2N2GQP4).
T2 construct: first 116 residues (disordered N-terminal tail) removed; pHue His-ubiquitin fusion, tag cleaved with USP2; expressed in E. coli; homohexamer (trimer of dimers)
T2 sequence (Z9Q2N2GQP4 117-583): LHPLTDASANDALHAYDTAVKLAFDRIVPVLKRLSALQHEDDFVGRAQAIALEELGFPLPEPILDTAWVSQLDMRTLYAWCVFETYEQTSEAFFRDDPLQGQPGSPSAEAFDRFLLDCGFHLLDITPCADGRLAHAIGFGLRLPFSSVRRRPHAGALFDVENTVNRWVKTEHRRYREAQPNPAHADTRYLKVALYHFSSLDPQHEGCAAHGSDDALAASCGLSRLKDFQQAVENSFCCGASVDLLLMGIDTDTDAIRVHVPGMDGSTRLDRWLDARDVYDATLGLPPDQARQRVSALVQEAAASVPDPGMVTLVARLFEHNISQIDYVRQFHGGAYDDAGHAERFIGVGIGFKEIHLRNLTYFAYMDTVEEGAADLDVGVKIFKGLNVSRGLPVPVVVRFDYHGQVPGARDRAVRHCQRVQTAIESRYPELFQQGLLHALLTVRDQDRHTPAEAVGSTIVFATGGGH
Briefly: membrane inlet mass spectrometry […]-exchange CA assay; Hill fit. Format: biochemical. The note with it: allosteric activator of bicarbonate dehydration/CO2 hydration; sigmoidal, Hill slope 2.214; 2.7 mM labelled bicarbonate, 50 mM EPPS-NaOH, 20 mM MgCl2, pH 7.8; site near dimer interface (R266, K469, R5).

For data set [2], the target named is T3, CyCsoSCA (Cyanobium sp. PCC 7001, UniProt Z9Q2N2GQP4, H472Q).
T3 construct: first 116 residues (disordered N-terminal tail) removed; pHue His-ubiquitin fusion, tag cleaved with USP2; expressed in E. coli; homohexamer (trimer of dimers)
T3 sequence (Z9Q2N2GQP4 117-583 H472Q): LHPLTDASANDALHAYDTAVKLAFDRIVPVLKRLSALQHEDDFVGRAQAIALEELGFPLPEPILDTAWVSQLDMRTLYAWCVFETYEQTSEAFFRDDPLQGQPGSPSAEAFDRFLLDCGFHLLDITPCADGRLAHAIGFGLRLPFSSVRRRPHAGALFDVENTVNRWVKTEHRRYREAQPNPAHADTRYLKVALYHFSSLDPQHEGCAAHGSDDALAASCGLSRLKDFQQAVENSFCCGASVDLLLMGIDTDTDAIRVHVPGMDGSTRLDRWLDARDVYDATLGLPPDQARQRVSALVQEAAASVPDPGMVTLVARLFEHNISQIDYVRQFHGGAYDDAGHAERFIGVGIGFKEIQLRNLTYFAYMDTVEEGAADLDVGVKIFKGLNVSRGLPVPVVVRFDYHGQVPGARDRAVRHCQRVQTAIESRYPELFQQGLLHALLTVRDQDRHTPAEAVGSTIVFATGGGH
As to the kind of experiment: membrane inlet mass spectrometry […]-exchange CA assay. Format: biochemical. The note with it: 100 μM RuBP; allosteric activator; same buffer.

Data set [3] concerns the target T4, CyCsoSCA (Cyanobium sp. PCC 7001, UniProt Z9Q2N2GQP4, K469D).
T4 construct: first 116 residues (disordered N-terminal tail) removed; pHue His-ubiquitin fusion, tag cleaved with USP2; expressed in E. coli; homohexamer (trimer of dimers)
T4 sequence (Z9Q2N2GQP4 117-583 K469D): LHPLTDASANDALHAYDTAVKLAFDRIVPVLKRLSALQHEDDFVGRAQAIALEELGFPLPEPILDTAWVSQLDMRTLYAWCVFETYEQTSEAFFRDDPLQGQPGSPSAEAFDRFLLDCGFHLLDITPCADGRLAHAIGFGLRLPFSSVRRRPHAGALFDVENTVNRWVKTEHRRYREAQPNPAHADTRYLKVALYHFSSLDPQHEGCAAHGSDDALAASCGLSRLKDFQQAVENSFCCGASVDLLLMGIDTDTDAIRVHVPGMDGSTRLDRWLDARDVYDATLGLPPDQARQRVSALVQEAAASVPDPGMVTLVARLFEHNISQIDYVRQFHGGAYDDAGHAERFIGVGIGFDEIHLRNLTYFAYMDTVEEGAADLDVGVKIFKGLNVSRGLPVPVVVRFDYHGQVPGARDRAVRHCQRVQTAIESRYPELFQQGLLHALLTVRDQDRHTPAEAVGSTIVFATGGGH
The data set is described as above. The note with it: 100 μM RuBP; allosteric activator; same buffer. Format: biochemical.

In data set [4] the target is T5, CyCsoSCA (Cyanobium sp. PCC 7001, UniProt Z9Q2N2GQP4, T477A).
T5 construct: first 116 residues (disordered N-terminal tail) removed; pHue His-ubiquitin fusion, tag cleaved with USP2; expressed in E. coli; homohexamer (trimer of dimers)
T5 sequence (Z9Q2N2GQP4 117-583 T477A): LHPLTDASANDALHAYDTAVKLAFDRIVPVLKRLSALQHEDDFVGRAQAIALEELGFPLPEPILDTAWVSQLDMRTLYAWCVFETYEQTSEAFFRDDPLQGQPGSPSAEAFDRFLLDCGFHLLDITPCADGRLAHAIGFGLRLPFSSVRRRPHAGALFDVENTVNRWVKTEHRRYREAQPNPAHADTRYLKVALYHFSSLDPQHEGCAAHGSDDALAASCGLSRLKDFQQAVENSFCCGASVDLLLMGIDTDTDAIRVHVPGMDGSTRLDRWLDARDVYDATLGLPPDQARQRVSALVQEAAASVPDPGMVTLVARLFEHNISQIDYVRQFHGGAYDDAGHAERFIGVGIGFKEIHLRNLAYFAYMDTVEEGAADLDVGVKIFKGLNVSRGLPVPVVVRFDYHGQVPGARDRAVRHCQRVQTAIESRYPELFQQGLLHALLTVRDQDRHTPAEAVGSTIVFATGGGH
Described as above. Format: biochemical. The note with it: 100 μM RuBP; allosteric activator; same buffer.

The target in data set [5] is Cyanobium sp. PCC7001 CsoSCA (α-carboxysome carbonic anhydrase), truncated form lacking the 116-residue disordered N-terminal region (Cyanobium sp. PCC7001). As to the kind of experiment: crystal structure; CyCsoSCA co-crystallised with RuBP (RuBP:CyCsoSCA 10:1), 7 mg/ml protein, 0.2 M ammonium sulfate, 0.1 M bis-tris pH 6.5, 21% PEG 3350, 15% ethylene glycol; one hexamer in the asymmetric unit, P212121.

Data set [6] shares this target. As to the kind of experiment: SEC; size exclusion chromatography of the purified protein in solution (fig. S13); conditions of this run not told in the main text. For orientation: SEC sorts molecules by how far they enter the pores of the column.
Data set [7] deals with the molecule itself. The description is as above.

In the case of `O=C(O)O` [HCO3^−], the “membrane inlet mass spectrometry 18O-exchange CA assay” value on HnCsoSCA was “HCO3^− dehydration activity was recorded using MIMS after the addition of CsoSCA variants”.

`O=C(COP(=O)(O)O)[C@H](O)[C@H](O)COP(=O)(O)O` [RuBP] had an EC50 on CyCsoSCA [1] of 18 ± 2 µM. Moreover, the “membrane inlet mass spectrometry 18O-exchange CA assay” value at CyCsoSCA [2] is “H472Q mutation (targeted approach) and T477A (random approach) also resulted in a biphasic activity profile”; on CyCsoSCA [3], “a minor increase in activity upon addition of the ligand”; on CyCsoSCA [4], “high levels of ligand-independent activity and a notable increase with RuBP”.

In the case of “Cyanobium sp. PCC7001 CsoSCA (α-carboxysome carbonic anhydrase), truncated form lacking the 116-residue disordered N-terminal region (enzyme)”, the stoichiometry N in data set [5] and in data set [6] was 6 in each case.

B1: Halothiobacillus neapolitanus CsoSCA (α-carboxysome carbonic anhydrase), truncated form lacking the first 49 residues (enzyme, UniProt O85042 50-514, looked up)
chain: RHPLTDLEANEQLGRCEDSVKNRFDRVIPFLQVVAGIPLGLDYVTRVQELAQSSLGHTLPEELLKDNWISGHNLKGIFGYATAKALTAATEQFSRKIMSEKDDSASAIGFFLDCGFHAVDISPCADGRLKGLLPYILRLPLTAFTYRKAYAGSMFDIEDDLAQWEKNELRRYREGVPNTADQPTRYLKIAVYHFSTSDPTHSGCAAHGSNDRAALEAALTQLMKFREAVENAHCCGASIDILLIGVDTDTDAIRVHIPDSKGFLNPYRYVDNTVTYAQTLHLAPDEARVIIHEAILNANRSDGWAKGNGVASEGMRRFIGQLLINNLSQIDYVVNRHGGRYPPNDIGHAERYISVGDGFDEVQIRNLAYYAHLDTVEENAIDVDVGIKIFTKLNLSRGLPIPIAIHYRYDPNVPGSRERTVVKARRIYNAIKERFSSLDEQNLLQFRLSVQAQDIGSPIEEVASA
notes: CsoSCA carbonic anhydrase of Halothiobacillus neapolitanus, O85042 with the first 49 residues (disordered N-terminal region) removed; codon-optimised for E. coli; also called HnCsoSCA; wild-type HnCsoSCA; source: E. coli NEB T7 Express pLysY, pHue plasmid, purified (HisTrap, USP2 cleavage, second HisTrap, SEC on Superdex 200)
Regarding B1, the “stoichiometry N” value in data set [7] worked out at 6.
